Results: patent publication US7202057B2 (Ortho-McNeil Pharmaceutical, Inc., priority 2000, dated 2007)
pKd, pKi: −log10 of the molar value.

Legend:
[1] = molecular target: T1, guinea pig histamine H4 receptor (Cavia porcellus, UniProt Q91ZY3); details: read-out: Guinea Pig Ki
[2] = molecular target: T2, human histamine H4 receptor (Homo sapiens, UniProt Q9H3N8)
[3] = molecular target: T2, human histamine H4 receptor; details: pH 4
[4] = molecular target: T1, guinea pig histamine H4 receptor; details: read-out: ^3H-histamine Kd

T2 sequence (Q9H3N8 whole entry): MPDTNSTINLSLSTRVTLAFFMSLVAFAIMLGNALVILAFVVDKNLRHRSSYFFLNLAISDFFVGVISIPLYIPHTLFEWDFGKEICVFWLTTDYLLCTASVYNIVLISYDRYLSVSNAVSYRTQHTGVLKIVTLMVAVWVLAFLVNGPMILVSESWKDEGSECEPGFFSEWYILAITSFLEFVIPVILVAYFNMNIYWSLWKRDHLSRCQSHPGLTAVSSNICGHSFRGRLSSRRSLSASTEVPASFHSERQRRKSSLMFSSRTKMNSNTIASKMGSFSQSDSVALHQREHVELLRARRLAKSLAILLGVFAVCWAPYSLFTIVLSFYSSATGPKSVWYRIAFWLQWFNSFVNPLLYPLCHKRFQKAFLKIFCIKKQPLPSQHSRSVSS

Structure (SMILES) | pKi [1] | also measured
NC(=NCc1ccc(Cl)cc1)SCCCc1cnc[nH]1 [Clobenpropit] | 8.44 | –
NCCc1c[nH]cn1 [Histamine] | 7.57 | Activation of the receptor (decrease of forskolin-raised cAMP) [2]: specifically activated
N=C(N)SCCc1cnc[nH]1 [Imetit] | 7.52 | –
CNCCc1c[nH]cn1 [N-methylhistamine] | 6.66 | –
C[C@@H](N)Cc1c[nH]cn1 [R-α-methylhistamine] | 6.31 | –
S=C(NC1CCCCC1)N1CCC(c2cnc[nH]2)CC1 [Thioperamide] | 7.08 | –
NCCc1cnc[nH]1 [^3H-histamine] | – | Binding affinity in words [3]: high affinity; pKd [4]: 7.70
